Measurements: patent US20240218022A1, “ANTI-VISTA MACROCYCLIC PEPTIDES AND COMPOSITIONS” (BRISTOL-MYERS SQUIBB COMPANY, priority 2022, published 2024)
Positions of bridges follow the written chain, without caps; N, C: chain ends. Non-standard residues stand in square brackets, D forms with d. Residues, ends and D or L forms follow the SMILES beside them. ξ: configuration not given here. Ile(3ξ) = CCC(C)[C@H](N)C(=O)O; Ahp(2) = CCCCC[C@H](N)C(=O)O; NHexGly = CCCCCCNCC(=O)O; Nle = CCCC[C@H](N)C(=O)O; Orn = NCCC[C@H](N)C(=O)O; Nva = CCC[C@H](N)C(=O)O

Target: T1, mouse VISTA (mVISTA) (Mus musculus, UniProt Q9D659)
T1 construct: expressed in transfected cells; host or cells: Human embryonic kidney 293T cells
T1 sequence (Q9D659 33-308): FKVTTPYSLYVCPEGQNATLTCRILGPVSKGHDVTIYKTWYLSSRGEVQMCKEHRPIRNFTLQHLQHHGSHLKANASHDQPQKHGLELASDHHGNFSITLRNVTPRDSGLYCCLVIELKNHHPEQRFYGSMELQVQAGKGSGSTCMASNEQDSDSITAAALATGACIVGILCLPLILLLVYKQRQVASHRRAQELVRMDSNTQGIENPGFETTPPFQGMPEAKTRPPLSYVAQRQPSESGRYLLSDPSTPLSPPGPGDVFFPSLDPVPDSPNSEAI
Test: Cell-Based Binding High-Content Assay For mVISTA (HC CBA mVISTA)
Details: 293T cells expressing mouse VISTA; competition with biotinylated peptide (2 nM); read-out: HC CBA mVISTA IC50
Procedure, shortened: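 This high-content binding assay uses HEK293T cells expressing murine VISTA, measuring displacement of 2 nM biotinylated peptide by fluorescent streptavidin imaging. IC50 values come from four-parameter logistic fitting.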

Row | Structure (SMILES) | IC50 [µM]
1 | CCCCCCN1CC(=O)N[C@@H](Cc2ccc(O)cc2)C(=O)N[C@@H](CCC)C(=O)N[C@@H](CC(N)=O)C(=O)N[C@@H](CCCNC(=N)N)C(=O)N[C@@H](CC(C)C)C(=O)N[C@@H](CCCCC)C(=O)N2CCC[C@H]2C(=O)N[C@@H](C(C)C)C(=O)N[C@@H](CO)C(=O)N[C@H](C(=O)NCC(=O)O)CSCC(=O)N[C@@H](Cc2ccccc2)C(=O)N[C@@H](Cc2ccc(O)cc2)C(=O)N[C@@H](CC(=O)O)C1=O [Example 1047] ({CH2CO}-FYD[NHexGly]Y[Nva]NRL[Ahp(2)]PVSCG-OH; thioether N-14) | 0.0322
2 | CCCCCCN1CC(=O)N[C@@H](Cc2ccc(O)cc2)C(=O)N[C@@H](CCCC)C(=O)N[C@@H](CC(=O)O)C(=O)N[C@@H](CCCN)C(=O)N[C@@H](CC(C)C)C(=O)N[C@@H](CCCCC)C(=O)N2CCC[C@H]2C(=O)N[C@@H](C(C)C)C(=O)N[C@@H](CO)C(=O)N[C@H](C(=O)NCC(N)=O)CSCC(=O)N[C@@H](Cc2ccccc2)C(=O)N[C@@H](Cc2ccc(O)cc2)C(=O)N[C@@H](CC(=O)O)C1=O [Example 1048] ({CH2CO}-FYD[NHexGly]Y[Nle]D[Orn]L[Ahp(2)]PVSCG-NH2; thioether N-14) | 0.0224
3 | CCCCCCN1CC(=O)N[C@@H](Cc2ccc(O)cc2)C(=O)N[C@@H](CC(C)C)C(=O)NCC(=O)N[C@@H](CCCNC(=N)N)C(=O)N[C@@H](CC(C)C)C(=O)N[C@@H](CCCCC)C(=O)N2CCC[C@H]2C(=O)N[C@@H](C(C)C)C(=O)N[C@@H](CO)C(=O)N[C@H](C(=O)NCC(N)=O)CSCC(=O)N[C@@H](Cc2ccccc2)C(=O)N[C@@H](Cc2ccc(O)cc2)C(=O)N[C@@H](CC(=O)O)C1=O [Example 1049] ({CH2CO}-FYD[NHexGly]YLGRL[Ahp(2)]PVSCG-NH2; thioether N-14) | 0.0095
4 | CCCCCCN1CC(=O)N[C@@H](Cc2ccc(O)cc2)C(=O)N[C@@H](CCCC)C(=O)NCC(=O)N[C@@H](CCCNC(=N)N)C(=O)N[C@@H](CC(C)C)C(=O)N[C@@H](CCCCC)C(=O)N2CCC[C@H]2C(=O)N[C@@H](C(C)C)C(=O)N[C@@H](CO)C(=O)N[C@H](C(=O)NCC(N)=O)CSCC(=O)N[C@@H](Cc2ccccc2)C(=O)N[C@@H](Cc2ccc(O)cc2)C(=O)N[C@@H](CC(=O)O)C1=O [Example 1050] ({CH2CO}-FYD[NHexGly]Y[Nle]GRL[Ahp(2)]PVSCG-NH2; thioether N-14) | 0.0299
5 | CCCCCCN1CC(=O)N[C@@H](Cc2ccc(O)cc2)C(=O)N[C@@H](CCCCN)C(=O)N[C@@H](CC(=O)O)C(=O)N[C@@H](CCCN)C(=O)N[C@@H](CC(C)C)C(=O)N[C@@H](CCCCC)C(=O)N2CCC[C@H]2C(=O)N[C@@H](C(C)C)C(=O)N[C@@H](CO)C(=O)N[C@H](C(=O)NCC(=O)O)CSCC(=O)N[C@@H](Cc2ccccc2)C(=O)N[C@@H](Cc2ccc(O)cc2)C(=O)N[C@@H](CC(=O)O)C1=O [Example 1051] ({CH2CO}-FYD[NHexGly]YKD[Orn]L[Ahp(2)]PVSCG-OH; thioether N-14) | 0.0115
6 | CCCCCCN1CC(=O)N[C@@H](Cc2ccc(O)cc2)C(=O)N[C@@H](CCCCN)C(=O)N[C@@H](CC(=O)O)C(=O)N[C@@H](CCCNC(=N)N)C(=O)N[C@@H](CC(C)C)C(=O)N[C@@H](CCCCC)C(=O)N2CCC[C@H]2C(=O)N[C@@H](C(C)C)C(=O)N[C@@H](CO)C(=O)N[C@H](C(=O)NCC(=O)O)CSCC(=O)N[C@@H](Cc2ccccc2)C(=O)N[C@@H](Cc2ccc(O)cc2)C(=O)N[C@@H](CC(=O)O)C1=O [Example 1052] ({CH2CO}-FYD[NHexGly]YKDRL[Ahp(2)]PVSCG-OH; thioether N-14) | 0.0271
7 | CCCCCCN1CC(=O)N[C@@H](Cc2ccc(O)cc2)C(=O)N[C@@H](CCCCN)C(=O)NCC(=O)N[C@@H](CCCNC(=N)N)C(=O)N[C@@H](CC(C)C)C(=O)N[C@@H](CCCCC)C(=O)N2CCC[C@H]2C(=O)N[C@@H](C(C)C)C(=O)N[C@@H](CO)C(=O)N[C@H](C(=O)NCC(=O)O)CSCC(=O)N[C@@H](Cc2ccccc2)C(=O)N[C@@H](Cc2ccc(O)cc2)C(=O)N[C@@H](CC(=O)O)C1=O [Example 1053] ({CH2CO}-FYD[NHexGly]YKGRL[Ahp(2)]PVSCG-OH; thioether N-14) | 0.0207
8 | CCCCCCN1CC(=O)N[C@@H](Cc2ccc(O)cc2)C(=O)N[C@@H](C(C)C)C(=O)NCC(=O)N[C@@H](CCCNC(=N)N)C(=O)N[C@@H](CC(C)C)C(=O)N[C@@H](CCCCC)C(=O)N2CCC[C@H]2C(=O)N[C@@H](C(C)C)C(=O)N[C@@H](CO)C(=O)N[C@H](C(=O)NCC(N)=O)CSCC(=O)N[C@@H](Cc2ccccc2)C(=O)N[C@@H](Cc2ccc(O)cc2)C(=O)N[C@@H](CC(=O)O)C1=O [Example 1054] ({CH2CO}-FYD[NHexGly]YVGRL[Ahp(2)]PVSCG-NH2; thioether N-14) | 0.0297
9 | CCCCCCN1CC(=O)N[C@@H](Cc2ccc(O)cc2)C(=O)N[C@@H](C(C)CC)C(=O)NCC(=O)N[C@@H](CCCNC(=N)N)C(=O)N[C@@H](CC(C)C)C(=O)N[C@@H](CCCCC)C(=O)N2CCC[C@H]2C(=O)N[C@@H](C(C)C)C(=O)N[C@@H](CO)C(=O)N[C@H](C(=O)NCC(N)=O)CSCC(=O)N[C@@H](Cc2ccccc2)C(=O)N[C@@H](Cc2ccc(O)cc2)C(=O)N[C@@H](CC(=O)O)C1=O (stereo partly shown) [Example 1055] ({CH2CO}-FYD[NHexGly]Y[Ile(3ξ)]GRL[Ahp(2)]PVSCG-NH2; thioether N-14) | 0.0369
10 | CCCCCCN1CC(=O)N[C@@H](Cc2ccc(O)cc2)C(=O)N[C@@H](CCCCC)C(=O)N[C@@H](CCCCN)C(=O)N[C@@H](CCCNC(=N)N)C(=O)N[C@@H](CC(C)C)C(=O)N[C@@H](CCCCC)C(=O)N2CCC[C@H]2C(=O)N[C@@H](C(C)C)C(=O)N[C@@H](CO)C(=O)N[C@H](C(=O)NCC(N)=O)CSCC(=O)N[C@@H](Cc2ccccc2)C(=O)N[C@@H](Cc2ccc(O)cc2)C(=O)N[C@@H](CC(=O)O)C1=O [Example 1056] ({CH2CO}-FYD[NHexGly]Y[Ahp(2)]KRL[Ahp(2)]PVSCG-NH2; thioether N-14) | 0.0171
11 | CCCCCCN1CC(=O)N[C@@H](Cc2ccc(O)cc2)C(=O)N[C@@H](CCCCC)C(=O)N[C@@H](CCC(=O)O)C(=O)N[C@@H](CCCNC(=N)N)C(=O)N[C@@H](CC(C)C)C(=O)N[C@@H](CCCCC)C(=O)N2CCC[C@H]2C(=O)N[C@@H](C(C)C)C(=O)N[C@@H](CO)C(=O)N[C@H](C(=O)NCC(N)=O)CSCC(=O)N[C@@H](Cc2ccccc2)C(=O)N[C@@H](Cc2ccc(O)cc2)C(=O)N[C@@H](CC(=O)O)C1=O [Example 1057] ({CH2CO}-FYD[NHexGly]Y[Ahp(2)]ERL[Ahp(2)]PVSCG-NH2; thioether N-14) | 0.0351
12 | CCCCCCN1CC(=O)N[C@@H](Cc2ccc(O)cc2)C(=O)N[C@@H](CCCCN)C(=O)N[C@@H](CC(N)=O)C(=O)N[C@@H](CCCNC(=N)N)C(=O)N[C@@H](CC(C)C)C(=O)N[C@@H](CCCCC)C(=O)N2CCC[C@H]2C(=O)N[C@@H](C(C)C)C(=O)N[C@@H](CO)C(=O)N[C@H](C(=O)NCC(=O)O)CSCC(=O)N[C@@H](Cc2ccccc2)C(=O)N[C@@H](Cc2ccc(O)cc2)C(=O)N[C@@H](CC(=O)O)C1=O [Example 1058] ({CH2CO}-FYD[NHexGly]YKNRL[Ahp(2)]PVSCG-OH; thioether N-14) | 0.0387
13 | CCCCCCN1CC(=O)N[C@@H](Cc2ccc(O)cc2)C(=O)N[C@@H](C(C)CC)C(=O)NCC(=O)N[C@@H](CCCNC(=N)N)C(=O)N[C@@H](CC(C)C)C(=O)N[C@@H](CCCCC)C(=O)N2CCC[C@H]2C(=O)N[C@@H](C(C)C)C(=O)N[C@@H](CO)C(=O)N[C@H](C(=O)NCC(=O)O)CSCC(=O)N[C@@H](Cc2ccccc2)C(=O)N[C@@H](Cc2ccc(O)cc2)C(=O)N[C@@H](CC(=O)O)C1=O (stereo partly shown) [Example 1059] ({CH2CO}-FYD[NHexGly]Y[Ile(3ξ)]GRL[Ahp(2)]PVSCG-OH; thioether N-14) | 0.03
